Test results: ChEMBL document CHEMBL1201862, “PubChem BioAssay data set” (2004)
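Briefly, cells in 96-well plates were exposed to five compound concentrations for 48 h, and endpoints were estimated by linear interpolation. Here, GI50 denotes the concentration required for 50% inhibition of growth.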 The source made the active and inactive calls. Cut-off read from the data, not from the text of the source: active = GI50 up to about 1.1 µM and inactive = higher.

Assays:
Assay in all cases: inhibition of tumour cell growth, NCI panel, 48 h
BT-549 = tested on: BT-549
HL-60 = tested on: HL-60
SK-MEL-28 = tested on: SK-MEL-28
NCI-H460 = tested on: NCI-H460
SF-268 = tested on: SF-268
DU-145 = tested on: DU-145
SNB-19 = tested on: SNB-19
A549 = tested on: A549
IGROV-1 = tested on: IGROV-1
NCI/ADR-RES = tested on: NCI/ADR-RES
SNB-75 = tested on: SNB-75
RXF 393 = tested on: RXF 393
SW-620 = tested on: SW-620
UACC-62 = tested on: UACC-62
MOLT-4 = tested on: MOLT-4
PC-3 = tested on: PC-3
K562 = tested on: K562
MDA-MB-435 = tested on: MDA-MB-435
SR = tested on: SR
SF-539 = tested on: SF-539

| Compound | GI50 (BT-549) | GI50 (HL-60) | GI50 (SK-MEL-28) | GI50 (NCI-H460) | GI50 (SF-268) | GI50 (DU-145) | GI50 (SNB-19) | GI50 (A549) | GI50 (IGROV-1) | GI50 (NCI/ADR-RES) | GI50 (SNB-75) | GI50 (RXF 393) | GI50 (SW-620) | GI50 (UACC-62) | GI50 (MOLT-4) | GI50 (PC-3) | GI50 (K562) | GI50 (MDA-MB-435) | GI50 (SR) | GI50 (SF-539) |
| --- | --- | --- | --- | --- | --- | --- | --- | --- | --- | --- | --- | --- | --- | --- | --- | --- | --- | --- | --- | --- |
| O=c1ccn(C2OC(CN(O)CCC3C(CO)OC(n4ccc(=O)[nH]c4=O)C3O)C(O)C2O)c(=O)[nH]1 (centres undefined) | > 100 µM (inactive) | > 100 µM (inactive) | > 100 µM (inactive) | > 100 µM (inactive) | > 100 µM (inactive) | > 100 µM (inactive) | > 100 µM (inactive) | > 100 µM (inactive) | > 100 µM (inactive) | > 100 µM (inactive) | > 100 µM (inactive) | > 100 µM (inactive) | > 100 µM (inactive) | > 100 µM (inactive) | > 100 µM (inactive) | > 100 µM (inactive) | > 100 µM (inactive) | > 100 µM (inactive) |  |  |
| O=CC12CCCN1CCC2 | > 100 µM (inactive) |  | > 100 µM (inactive) | > 100 µM (inactive) |  | > 100 µM (inactive) | > 100 µM (inactive) | > 100 µM (inactive) | > 100 µM (inactive) | > 100 µM (inactive) |  | > 100 µM (inactive) | > 100 µM (inactive) | > 100 µM (inactive) | > 100 µM (inactive) | > 100 µM (inactive) | > 100 µM (inactive) | > 100 µM (inactive) | > 100 µM (inactive) |  |
| CC(C)(C)OC(=O)CCC1NC(=O)[C@@H]2Cc3c([nH]c4ccccc34)C(C3CCCCC3)N2C1=O (some centres undefined) | 48.8 µM (inactive) | 16.6 µM (inactive) | 68.9 µM (inactive) |  | 31.4 µM (inactive) | 57.3 µM (inactive) | 41.9 µM (inactive) | 26.4 µM (inactive) | 36.8 µM (inactive) | 48.8 µM (inactive) |  | 20 µM (inactive) | 44.4 µM (inactive) | 45.3 µM (inactive) | 12.4 µM (inactive) | 18.8 µM (inactive) | 32.4 µM (inactive) | 30.8 µM (inactive) | 15.5 µM (inactive) |  |
| C/C(=N\NC(=S)N1CCOCC1)c1nc2cccnc2[nH]1 | 11.2 µM (inactive) | 24.5 µM (inactive) | 74.1 µM (inactive) | 31.4 µM (inactive) | 24.8 µM (inactive) | 39.9 µM (inactive) | 21.9 µM (inactive) | 30.7 µM (inactive) | 47.1 µM (inactive) | 80.5 µM (inactive) | 18.2 µM (inactive) |  | 43 µM (inactive) | 37.7 µM (inactive) | 32.2 µM (inactive) | 27.9 µM (inactive) | 51.9 µM (inactive) | > 100 µM (inactive) | 49.5 µM (inactive) | 19.3 µM (inactive) |
| CNc1ncccc1Nc1cc(=O)n2c3cccnc3n(C)c2c1 | > 100 µM (inactive) |  | > 100 µM (inactive) | > 100 µM (inactive) | 51.8 µM (inactive) | > 100 µM (inactive) | 40.9 µM (inactive) | > 100 µM (inactive) | 34.1 µM (inactive) | > 100 µM (inactive) | 24.9 µM (inactive) | 20.6 µM (inactive) | > 100 µM (inactive) | > 100 µM (inactive) | > 100 µM (inactive) | 9.51 µM (inactive) | > 100 µM (inactive) | > 100 µM (inactive) | > 100 µM (inactive) | 73.5 µM (inactive) |
| O=c1cc(-c2cccnc2)[nH]c2cc3c(cc12)OCO3 | 30.3 µM (inactive) | 7.35 µM (inactive) | 6.18 µM (inactive) | 10.8 µM (inactive) | 12.9 µM (inactive) | 33 µM (inactive) | 13 µM (inactive) | 19.2 µM (inactive) | 4.47 µM (inactive) | 14.8 µM (inactive) | 3.29 µM (inactive) | 9.02 µM (inactive) | 6.38 µM (inactive) | 3.3 µM (inactive) | 17.1 µM (inactive) | 11 µM (inactive) | 5.07 µM (inactive) | 1.84 µM (inactive) |  | 5.58 µM (inactive) |
| Nc1ccccc1OCc1cc(=O)c(OCc2ccccc2)co1 | 33.5 µM (inactive) | 14.9 µM (inactive) | > 100 µM (inactive) | 7.62 µM (inactive) | 15.9 µM (inactive) | 47.8 µM (inactive) | > 100 µM (inactive) | 71.1 µM (inactive) |  | 10.2 µM (inactive) |  |  | 80.7 µM (inactive) | 0.469 µM (active) | > 100 µM (inactive) | 34.4 µM (inactive) | 2.75 µM (inactive) | 15.8 µM (inactive) | > 100 µM (inactive) | 21.6 µM (inactive) |
| COC(=O)C(CBr)CBr | 2.65 µM (inactive) | 0.253 µM (active) | 3.77 µM (inactive) | 14 µM (inactive) | 15.1 µM (inactive) | 16.6 µM (inactive) | 8.51 µM (inactive) | 18.2 µM (inactive) | 10.4 µM (inactive) | 3.1 µM (inactive) | 16.3 µM (inactive) | 2.19 µM (inactive) | 1.27 µM (inactive) | 9.42 µM (inactive) | 1.69 µM (inactive) | 10.2 µM (inactive) | 1.57 µM (inactive) | 3.33 µM (inactive) |  | 5.96 µM (inactive) |
| CC(=O)C1(O)CCC2(O)C3(O)CC=C4CC(O)CCC4(C)C3CC(OC(=O)c3ccc(O)cc3)C12C (centres undefined) | > 100 µM (inactive) | > 100 µM (inactive) | > 100 µM (inactive) | > 100 µM (inactive) | > 100 µM (inactive) | > 100 µM (inactive) | > 100 µM (inactive) | > 100 µM (inactive) | > 100 µM (inactive) | > 100 µM (inactive) | > 100 µM (inactive) |  | > 100 µM (inactive) | 75.2 µM (inactive) | 46.2 µM (inactive) | > 100 µM (inactive) | 27 µM (inactive) | > 100 µM (inactive) | > 100 µM (inactive) | > 100 µM (inactive) |
| CCN(CC)CCCC(C)Nc1cc(/C=C/c2ccc(Cl)cc2)nc2cc(N(C)C)ccc12 (centres undefined) | 1.65 µM (inactive) | 1.72 µM (inactive) | 1.74 µM (inactive) | 1.67 µM (inactive) | 1.83 µM (inactive) | 1.66 µM (inactive) | 1.82 µM (inactive) | 2.25 µM (inactive) | 2 µM (inactive) | 2.19 µM (inactive) |  | 1.61 µM (inactive) | 1.33 µM (inactive) | 2.52 µM (inactive) | 1.19 µM (inactive) | 1.41 µM (inactive) | 0.272 µM (active) | 1.67 µM (inactive) | 1.25 µM (inactive) | 2.15 µM (inactive) |
| CCCCCCCCC/C=C1\CC(CO)(COC(=O)C2CCCCC2)OC1=O (centres undefined) | 18.4 µM (inactive) |  | 15.6 µM (inactive) | 14.5 µM (inactive) | 20.4 µM (inactive) | 7.6 µM (inactive) | 21.8 µM (inactive) | 19.4 µM (inactive) | 20.2 µM (inactive) | 17 µM (inactive) | 15.8 µM (inactive) | 20.2 µM (inactive) | 18.4 µM (inactive) | 21.5 µM (inactive) | 21.7 µM (inactive) | 17 µM (inactive) | 11 µM (inactive) | 13.5 µM (inactive) | 32.4 µM (inactive) |  |
| C=CCOC(=O)C1C2OC3(C(C(=O)OC)=C2C(=O)OC)c2ccccc2CCC13 (centres undefined) | > 10 µM (inactive) | > 10 µM (inactive) | > 10 µM (inactive) | > 10 µM (inactive) | > 10 µM (inactive) | > 10 µM (inactive) | > 10 µM (inactive) | > 10 µM (inactive) | > 10 µM (inactive) | > 10 µM (inactive) |  | > 10 µM (inactive) | > 10 µM (inactive) | > 10 µM (inactive) | > 10 µM (inactive) | > 10 µM (inactive) | > 10 µM (inactive) | > 10 µM (inactive) | > 10 µM (inactive) | > 10 µM (inactive) |
| OCCNc1ncnc2[nH]cnc12 | > 100 µM (inactive) | > 100 µM (inactive) | > 100 µM (inactive) | > 100 µM (inactive) | > 100 µM (inactive) | > 100 µM (inactive) | > 100 µM (inactive) | > 100 µM (inactive) | > 100 µM (inactive) | > 100 µM (inactive) | 0.296 µM (active) | > 100 µM (inactive) | > 100 µM (inactive) | > 100 µM (inactive) | > 100 µM (inactive) | > 100 µM (inactive) | > 100 µM (inactive) | > 100 µM (inactive) |  |  |
| COc1ccc(C2=NNC(=O)c3ccccc3N2c2nc(-c3cccs3)nc3cc(OC)c(OC)cc23)cc1 | 2.62 µM (inactive) |  | 2.39 µM (inactive) | 4.43 µM (inactive) | 6.46 µM (inactive) | 6.49 µM (inactive) | 2.79 µM (inactive) | 5.6 µM (inactive) | 11.1 µM (inactive) | 5.55 µM (inactive) | 3.81 µM (inactive) |  | 4.86 µM (inactive) | 2.34 µM (inactive) | 16.6 µM (inactive) | 4.68 µM (inactive) | 24.3 µM (inactive) | 3.75 µM (inactive) | 0.673 µM (active) | 2.79 µM (inactive) |
| COc1ccc2c(c1)C(N)=C(Cc1ccncc1)C2=O | > 100 µM (inactive) | 49.4 µM (inactive) | > 100 µM (inactive) | > 100 µM (inactive) | > 100 µM (inactive) | > 100 µM (inactive) | > 100 µM (inactive) | > 100 µM (inactive) | 56.9 µM (inactive) | > 100 µM (inactive) | 28.4 µM (inactive) | > 100 µM (inactive) | > 100 µM (inactive) | 81.3 µM (inactive) | 63.1 µM (inactive) | 91.8 µM (inactive) | > 100 µM (inactive) | > 100 µM (inactive) |  | > 100 µM (inactive) |
